# Laboratory results as given in publication PMC12040169 (PLOS Biology, 2025).
# Assay: in vitro
# Conditions: human, hela cells, % viability
row,SMILES,"viability at 28.5 h, 10 µM [%]"
1,CN(CCN1CCCCC1)C(=O)c1cc2c([nH]1)CCCC2 [CBK281836],86.5
2,Cc1nc2cc(C(=O)N3CCc4[nH]c5ccccc5c4C3)ccc2n1C [CBK281842],60.6
3,O=C(Cn1cnc2ccccc21)N1CCC(c2ccccc2)C1 (centres unmarked) [CBK281845],84.5
4,CN(C)Cc1ccc(C(=O)N2CCc3[nH]c4ccccc4c3C2)cc1 [CBK281847],82.9
5,Cc1noc(C)c1CC(=O)N1CCc2[nH]c3ccccc3c2C1 [CBK281848],97.8
6,O=C(c1cn2ccccc2n1)N1CCC(c2ccccc2)C1 (centres unmarked) [CBK281850],104
7,O=C(c1cc(-c2ccccn2)n[nH]1)N1CCC(c2ccccc2)C1 (centres unmarked) [CBK281852],91.9
8,O=C(c1cnn(-c2ccccc2)c1)N1CCc2[nH]c3ccccc3c2C1 [CBK281853],74.1
9,Cc1nc2cc(C(=O)N(C)CCN3CCCCC3)ccc2n1C [CBK281854],78.3
10,CC1(C)C(=O)NCCN1C(=O)Cn1cnc2ccccc21 [CBK281856],89.3
11,CCn1c(C)nc2cc(NC(=O)CC3CCCCO3)ccc21 (centres unmarked) [CBK281859],98.2
12,O=C(Cn1cnc2ccccc21)N1CCc2[nH]c3ccccc3c2C1 [CBK281860],74.7
13,O=C(CCn1cccn1)Nc1ccc(OC2CCCC2)cc1 [CBK281861],87.1
14,Cc1nc2cc(C(=O)NCC(C)(C)N3CCCCC3)ccc2n1C [CBK281862],86.4
15,Cc1nc(C(F)(F)F)ccc1C(=O)NCC(C)(C)N1CCCCC1 [CBK281864],98
16,CCN(C(=O)c1n[nH]c2c1CCC2)C1CCN(C)CC1 [CBK281870],102
17,Cc1nc(C)c(C(=O)N2CCc3[nH]c4ccccc4c3C2)o1 [CBK281873],110
18,O=C(c1cnn2cccnc12)N1CCc2[nH]c3ccccc3c2C1 [CBK281874],93
19,Oc1cc(CCc2ccc(F)cc2)nc2ccnn12 [CBK281876],88.9
20,Cn1nc2c(c1C(=O)NCC(C)(C)N1CCCCC1)CCCC2 [CBK281878],94.4
21,CCn1c(C)nc2cc(NC(=O)c3oc(C)nc3C)ccc21 [CBK281881],106
22,Cc1nccn1CCC(=O)N1CCc2[nH]c3ccccc3c2C1 [CBK281882],111
23,CC(NC(=O)Cn1ccnc1-c1ccccc1)c1ccccn1 (centres unmarked) [CBK281885],103
24,CC(NC(=O)c1cn(C)c(=O)c2ccccc12)c1ccccn1 (centres unmarked) [CBK281886],92.1

row,SMILES,"viability at 28.5 h, 10 µM [%]"
1,Cc1ccc2[nH]nc(C(=O)NC(C)c3ccccn3)c2c1 (centres unmarked) [CBK281887],69.9
2,CC(NC(=O)c1c2c(nn1C)CCCC2)c1ccccn1 (centres unmarked) [CBK281888],95.2
3,CC(NC(=O)CCc1cn(C)c2ccccc12)c1ccccn1 (centres unmarked) [CBK281889],93.1
4,Cn1nccc1CN1CCCC(Cc2nc3ccccc3[nH]2)C1 (centres unmarked) [CBK281892],98.2
5,Cc1ccc(C(Cn2cncc2-c2cn(C)nc2C)N(C)C)cc1 (centres unmarked) [CBK281896],98.7
6,O=C(Cn1cccc2cc(-c3cccs3)nc1-2)NC1CC1 [CBK281897],108
7,Cc1oc2c(c1C(=O)NCCn1ccnc1C)CCCC2 [CBK281898],97.1
8,Cc1cc(C)n(CCCN(C)Cc2c(C)nc3ccccn23)n1 [CBK281901],90
9,CN(CCN1CCCCC1)C(=O)c1ccccc1Cn1cccn1 [CBK281904],105
10,CN(CCN1CCCCC1)C(=O)CCc1cn(C)c2ccccc12 [CBK281906],94.3
11,O=C1CCCN1c1ccc(CN2CCN(C3CCCC3)C(=O)C2)cc1 [CBK281908],96.2
12,Cn1c(=O)n(C)c2cc(CN3CCN(C4CCCC4)C(=O)C3)ccc21 [CBK281909],97.1
13,Cn1cc(C(=O)N2CCc3nc(-c4cccc(F)c4)sc3C2)cn1 [CBK281910],94.5
14,Cc1c(-c2cncn2CC(=O)NC(C)(C)C)[nH]c2ccccc12 [CBK281911],87.5
15,Cn1cc(C(=O)N2CCc3nc(-c4ccccc4F)sc3C2)cn1 [CBK281914],89
16,CN(C)c1ccc(CCNC(=O)c2cn3ccccc3n2)cc1 [CBK281916],87.4
17,Cn1cc(C(=O)N2CCC(c3ccccc3)C2)c2ccccc2c1=O (centres unmarked) [CBK281921],103
18,CC(C)(CO)CCCn1cncc1-c1cnn(-c2ccccc2)c1 [CBK281922],96.9
19,C=CCN1CCc2cc(-c3cncn3CC(=O)NC(C)(C)C)ccc21 [CBK281923],86.7
20,CCN1c2ccc(-c3cncn3CCCn3ccnc3C)cc2CC1C (centres unmarked) [CBK281924],90.7
21,O=C1CN(Cc2cnn(-c3ccc(F)cc3)c2)CCN1C1CCCC1 [CBK281926],86.5
22,CN(C(=O)C1CC1)c1nc2c(s1)CCc1c-2cnn1C [CBK281927],75.7
23,CN(C(=O)c1ccco1)c1nc2c(s1)CCc1c-2cnn1C [CBK281928],81.2
24,CN(C(=O)Cc1ccsc1)c1nc2c(s1)CCc1c-2cnn1C [CBK281929],82.4

row,SMILES,"viability at 28.5 h, 10 µM [%]"
1,CCCN(C(=O)C1CC1)c1nc2c(s1)CCc1c-2cnn1C [CBK281930],88.8
2,CN(C(=O)C1CCC1)c1nc2c(s1)CCc1c-2cnn1C [CBK281931],75.9
3,Cc1cc2c(o1)CCc1sc(N(C)C(=O)C3CCCO3)nc1-2 (centres unmarked) [CBK281932],80.3
4,O=c1[nH]c2ccccc2cc1CNc1ccc(F)cc1F [CBK281933],84.1
5,COc1ccc2cc(CNc3ccc(F)c(F)c3)c(=O)[nH]c2c1 [CBK281934],83
6,Cc1ccc2[nH]c(=O)c(CNc3ccc4[nH]ncc4c3)cc2c1 [CBK281936],73
7,O=C(CN1CCC(O)(c2ccccc2F)CC1)N1CCCCC1 [CBK281938],103
8,Cc1cc2cc3c(nc2cc1C)OCCNC3 [CBK281939],97.1
9,Cc1ccc2nc3c(cc2c1)CNCC(C)O3 (centres unmarked) [CBK281941],85.9
10,O=C(CN1C2CCC1CC(O)(c1ccccc1F)C2)NCC1CC1 (centres unmarked) [CBK281942],93.4
11,O=C(C1CC1)N1CCCC(c2nc(-c3cccs3)no2)C1 (centres unmarked) [CBK281944],97.1
12,O=C1NC2(CCCCC2)C(=O)N1c1ccc(F)cc1F [CBK281945],111
13,OC1(c2ccc(F)cc2)CC2CCC(C1)N2 (centres unmarked) [CBK281947],89.7
14,Cc1cc(C2CCCCCN2Cc2cc(Cl)ccc2O)on1 (centres unmarked) [CBK281948],89.2
15,CC1CC(C)CN(CCCNC(=O)c2cc(-c3cccs3)no2)C1 (centres unmarked) [CBK281949],93
16,Cn1cc(C(=O)NCC(c2ccccc2F)N2CCCC2)ccc1=O (centres unmarked) [CBK281950],83.9
17,Cc1nccn1CCC1CCN(C(=O)c2cnn(C)c2)CC1 [CBK281951],89.3
18,CC(=O)N1CCC(C(=O)NCCc2cccc(C)c2)C1 (centres unmarked) [CBK281952],110
19,Cc1cc(CN(C)Cc2ccc(N3CCCC3)c(F)c2)n[nH]1 [CBK281953],104
20,Cc1nccn1CCC(=O)NCCc1ccc(N(C)C)cc1 [CBK281954],82.6
21,CCN1CCC(CC(=O)N2CCC(c3ccccc3)C2)CC1 (centres unmarked) [CBK281958],79.5
22,Cc1noc(C)c1CC(=O)N1CCC(c2ccccc2)C1 (centres unmarked) [CBK281959],102
23,CCN1CCc2cc(CN3CCCC(Cn4ccnc4C)C3)ccc21 (centres unmarked) [CBK281965],96.9
24,CN(CCc1ccccn1)C(=O)C1CN(C(=O)C2CC23CCC3)C1 (centres unmarked) [CBK281969],104

row,SMILES,"viability at 28.5 h, 10 µM [%]"
1,O=C(CN1CCCC1Cn1cccn1)N1CCCc2ccccc21 (centres unmarked) [CBK281971],89
2,Cc1ccc(C(C)(C)C(=O)N2CCC(CC(=O)N(C)C)CC2)cc1 [CBK281973],99.8
3,Cc1nccn1CC1CCCN(Cc2nc3ccccc3n2C)C1 (centres unmarked) [CBK281975],110
4,Cc1cc(C)n(C2CCN(Cc3ccc(-n4ccnc4C)cc3)CC2)n1 [CBK281976],112
5,Cc1nccn1CCNC(=O)CC1C(=O)N(C)c2ccccc21 (centres unmarked) [CBK281977],101
6,CC(C)(C)NC(=O)Cn1cncc1-c1[nH]c2ccccc2c1Cl [CBK281981],105
7,Cc1nc(C(F)(F)F)ccc1C(=O)NCCn1ccnc1C [CBK281982],88.9
8,Cc1nccn1CCNC(=O)Cn1cnc2ccccc21 [CBK281983],102
9,Cc1cc(CN(C)Cc2c(C)nn(-c3ccc(F)cc3)c2C)n[nH]1 [CBK281990],95
10,CN1CCC(C(=O)Nc2cccc(Cn3cccn3)c2)C1 (centres unmarked) [CBK281991],100
11,CC(CNC(=O)CCc1cn(C)c2ccccc12)N1CCOCC1 (centres unmarked) [CBK281996],87.4
12,CCn1nc(C)c(-c2cncn2CCCOc2cccc(C)c2)c1C [CBK281997],98.2
13,CCn1nc(C)c(-c2cncn2Cc2ccccc2CN(C)C)c1C [CBK281998],88.1
14,CCCC(=O)NCCn1nc(-c2ccccc2F)cc1CN(C)C [CBK282000],111
15,Cc1cc(N(C)C)cc(C2CCCN(C(=O)C3CCC3)C2)n1 (centres unmarked) [CBK282004],88.7
16,CC(C)CC(=O)NCCn1nc(-c2ccccc2F)cc1CN(C)C [CBK282005],97.4
17,CN(C)Cc1cc(-c2ccccc2F)nn1CCNC(=O)C1CC1 [CBK282006],90.5
18,CCCC(=O)NCc1ccc(-c2cc(CN(C)C)n(C)n2)cc1 [CBK282007],98.4
19,CN1CC(C(=O)NCC(c2ccccc2)N2CCCCCC2)CC1=O (centres unmarked) [CBK282008],105
20,Cc1nn(CCNC(=O)C(c2ccc(F)cc2)N(C)C)c(C)c1C (centres unmarked) [CBK282009],89.2
21,Cc1cc(C)n(C(C)CC(=O)N2CCN(C)CC2c2ccccc2)n1 (centres unmarked) [CBK282014],92.2
22,CCN1CC(C(=O)N2CCN(C)CC2c2ccccc2)CC1=O (centres unmarked) [CBK282026],92.2
23,CCN1CC(C(=O)N2CCCC(COc3ccc(F)cc3)C2)CC1=O (centres unmarked) [CBK282028],85.3
